# From patent US9402398B2, “Herbicidal compounds” (SYNGENTA PARTICIPATIONS AG, priority 2012, dated 2016)
# What was measured:
# Type in all cases: in vivo
# [1] = tested on: Amaranthus retoflexus (AMARE); experiment: Herbicidal glasshouse test, post-emergence; conditions: post-emergence (sprayed after 8 days cultivation), 1000 g/h, evaluated after 13 days
# Protocol: (§1) Seeds of a variety of test species are sown in standard soil in pots (Alopecurus myosuroides (ALOMY), Setaria faberi (SETFA), Echinochloa crus-galli (ECHCG), Solanum nigrum (SOLNI), Amaranthus retoflexus (AMARE), Ipomoea hederacea (IPOHE)). After cultivation for one day (pre-emergence) or after 8 days cultivation (post-emergence) under controlled conditions in a glasshouse (at 24/16° C., day/night; 14 hours light; 65% humidity), the plants are sprayed with an aqueous spray solution derived from the formulation of the technical active ingredient in acetone/water (50:50) solution containing 0.5% Tween 20 (polyoxyethelyene sorbitan monolaurate, CAS RN 9005-64-5). Compounds are applied at 1000 g/h. The test plants are then grown in a glasshouse under controlled conditions in a glasshouse (at 24/16° C., day/night; 14 hours light; 65% humidity) and watered twice daily. After 13 days for pre and post-emergence, the test is evaluated for the percentage damage caused to the plant. The biological activities are shown in the following table on a five point scale (5=80-100%; 4=60-79%; 3=40-59%; 2=20-39%; 1=0-19%).
# [2] = tested on: Ipomoea hederacea (IPOHE); experiment: Herbicidal glasshouse test, post-emergence; conditions: post-emergence (sprayed after 8 days cultivation), 1000 g/h, evaluated after 13 days
# Protocol: as §1
# Setaria faberi (SETFA) [3] = experiment: Herbicidal glasshouse test, post-emergence; conditions: post-emergence (sprayed after 8 days cultivation), 1000 g/h, evaluated after 13 days
# Protocol: as §1
# [4] = tested on: Echinochloa crus-galli (ECHCG); experiment: Herbicidal glasshouse test, post-emergence; conditions: post-emergence (sprayed after 8 days cultivation), 1000 g/h, evaluated after 13 days
# Protocol: as §1
# Solanum nigrum (SOLNI) [5] = experiment: Herbicidal glasshouse test, post-emergence; conditions: post-emergence (sprayed after 8 days cultivation), 1000 g/h, evaluated after 13 days
# Protocol: as §1
# [6] = tested on: Alopecurus myosuroides (ALOMY); experiment: Herbicidal glasshouse test, post-emergence; conditions: post-emergence (sprayed after 8 days cultivation), 1000 g/h, evaluated after 13 days
# Protocol: as §1
# [7] = tested on: Amaranthus retoflexus (AMARE); experiment: Herbicidal glasshouse test, pre-emergence; conditions: pre-emergence (sprayed after cultivation for one day), 1000 g/h, evaluated after 13 days
# Protocol: as §1
# [8] = tested on: Ipomoea hederacea (IPOHE); experiment: Herbicidal glasshouse test, pre-emergence; conditions: pre-emergence (sprayed after cultivation for one day), 1000 g/h, evaluated after 13 days
# Protocol: as §1
# Setaria faberi (SETFA) [9] = experiment: Herbicidal glasshouse test, pre-emergence; conditions: pre-emergence (sprayed after cultivation for one day), 1000 g/h, evaluated after 13 days
# Protocol: as §1
# [10] = tested on: Echinochloa crus-galli (ECHCG); experiment: Herbicidal glasshouse test, pre-emergence; conditions: pre-emergence (sprayed after cultivation for one day), 1000 g/h, evaluated after 13 days
# Protocol: as §1
# Solanum nigrum (SOLNI) [11] = experiment: Herbicidal glasshouse test, pre-emergence; conditions: pre-emergence (sprayed after cultivation for one day), 1000 g/h, evaluated after 13 days
# Protocol: as §1
# [12] = tested on: Alopecurus myosuroides (ALOMY); experiment: Herbicidal glasshouse test, pre-emergence; conditions: pre-emergence (sprayed after cultivation for one day), 1000 g/h, evaluated after 13 days
# Protocol: as §1
Structure (SMILES),"percentage damage caused to the plant, five point scale, POST Application AMARE [1]","percentage damage caused to the plant, five point scale, POST Application IPOHE [2]","percentage damage caused to the plant, five point scale, POST Application SETFA (Setaria faberi (SETFA) [3])","percentage damage caused to the plant, five point scale, POST Application ECHCG [4]","percentage damage caused to the plant, five point scale, POST Application SOLNI (Solanum nigrum (SOLNI) [5])","percentage damage caused to the plant, five point scale, POST Application ALOMY [6]","percentage damage caused to the plant, five point scale, PRE Application AMARE [7]","percentage damage caused to the plant, five point scale, PRE Application IPOHE [8]","percentage damage caused to the plant, five point scale, PRE Application SETFA (Setaria faberi (SETFA) [9])","percentage damage caused to the plant, five point scale, PRE Application ECHCG [10]","percentage damage caused to the plant, five point scale, PRE Application SOLNI (Solanum nigrum (SOLNI) [11])","percentage damage caused to the plant, five point scale, PRE Application ALOMY [12]"
Cc1cc(C(=O)Nc2nnnn2C)c(=O)n(-c2ccc(F)cc2Br)n1 [Compound 1.020],5 (5=80-100%),5 (5=80-100%),5 (5=80-100%),5 (5=80-100%),5 (5=80-100%),5 (5=80-100%),5 (5=80-100%),5 (5=80-100%),5 (5=80-100%),5 (5=80-100%),5 (5=80-100%),5 (5=80-100%)
Cc1cc(C(=O)Nc2nnnn2C)c(=O)n(-c2ccc(Cl)cc2)n1 [Compound 1.012],5 (5=80-100%),5 (5=80-100%),5 (5=80-100%),5 (5=80-100%),5 (5=80-100%),5 (5=80-100%),5 (5=80-100%),3 (3=40-59%),5 (5=80-100%),5 (5=80-100%),5 (5=80-100%),5 (5=80-100%)
Cc1cc(C(=O)Nc2nnnn2C)c(=O)n(-c2ccc(F)cc2)n1 [Compound 1.014],5 (5=80-100%),5 (5=80-100%),5 (5=80-100%),5 (5=80-100%),5 (5=80-100%),5 (5=80-100%),5 (5=80-100%),4 (4=60-79%),5 (5=80-100%),5 (5=80-100%),5 (5=80-100%),5 (5=80-100%)
Cc1cc(C(=O)Nc2nnnn2C)c(=O)n(-c2cccc(C#N)c2)n1 [Compound 1.018],5 (5=80-100%),5 (5=80-100%),5 (5=80-100%),5 (5=80-100%),5 (5=80-100%),5 (5=80-100%),5 (5=80-100%),5 (5=80-100%),5 (5=80-100%),5 (5=80-100%),5 (5=80-100%),5 (5=80-100%)
Cc1cc(C(=O)Nc2nnnn2C)c(=O)n(-c2cc(Cl)ccc2C)n1 [Compound 1.019],5 (5=80-100%),5 (5=80-100%),5 (5=80-100%),5 (5=80-100%),5 (5=80-100%),5 (5=80-100%),5 (5=80-100%),5 (5=80-100%),5 (5=80-100%),5 (5=80-100%),5 (5=80-100%),5 (5=80-100%)
C=Cc1ccc(-n2nc(C)cc(C(=O)Nc3nnnn3C)c2=O)cc1 [Compound 1.008],5 (5=80-100%),5 (5=80-100%),5 (5=80-100%),5 (5=80-100%),5 (5=80-100%),5 (5=80-100%),5 (5=80-100%),2 (2=20-39%),5 (5=80-100%),4 (4=60-79%),5 (5=80-100%),5 (5=80-100%)
COCCn1nc(C)cc(C(=O)Nc2nnnn2C)c1=O [Compound 1.017],5 (5=80-100%),5 (5=80-100%),5 (5=80-100%),5 (5=80-100%),5 (5=80-100%),5 (5=80-100%),5 (5=80-100%),5 (5=80-100%),5 (5=80-100%),5 (5=80-100%),5 (5=80-100%),5 (5=80-100%)
CCc1ccc(-n2nc(C)cc(C(=O)Nc3nnnn3C)c2=O)cc1 [Compound 1.011],5 (5=80-100%),5 (5=80-100%),5 (5=80-100%),5 (5=80-100%),5 (5=80-100%),5 (5=80-100%),5 (5=80-100%),4 (4=60-79%),5 (5=80-100%),5 (5=80-100%),5 (5=80-100%),5 (5=80-100%)
